From article PMC10794345, “Analysis of vascular disruption in zebrafish embryos as an endpoint to predict developmental toxicity” (Archives of Toxicology, 2023)
Like-named read-outs stand apart in the source and are kept apart here.

Tests used:
[1] = system: zebrafish embryos, transgenic line Tg(kdr:EGFP); experiment: Number of ISVs by video subtraction in Tg(kdr:EGFP) zebrafish embryos; format: in vivo, zebrafish (D. rerio)
Procedure: (§1) Fertilized and normally developed embryos were selected according to Kimmel et al. ([1995]) with a dissection microscope (Olympus SZx7-ILLT) at 1 hpf. Depending on experiment, exposure was started within 2–3 h post-fertilization (16–128 cell stages) or at 24 hpf. Exposure was conducted in rectangular 96-well microplates (Clear Polystyrene, flat bottom, Uniplate, Whatman, GE Healthcare) covered by a lid with a test volume of 400 µL of exposure media. For each replicate one embryo per well and 16 wells per concentration were assessed. Experiments were performed with at least two replicates on independent days and breeding.
(§2) To determine the number of ISVs in the trunk region, high-resolution images of 96 hpf-old zebrafish embryos were recorded using a Leica DM6B-Z microscope (Leica, Wetzlar, Germany) attached to the VAST imaging system, and a camera (Leica DFC9000 sCMOS, objective: HC APO L U-V-I 20x/0.50 WATER UV). A series of 20 images with a frame rate of 20 images per second and a 2 × 2 pixel binning was recorded in autofocus mode for each embryo. For the Tg(kdr:EGFP) strain, one additional fluorescence image was obtained using a fluorescent filter set (emission wavelength 540 nm, excitation filter BP 450–490) and a camera exposure time of 129 ms and a 2. × 2 binning in autofocus mode.
A series of MATLAB scripts (Supplement File ‘Workflow 3.m’ and ‘Workflow 4.m’) was used to convert the image series into a video and to visualize the blood vessel by applying a video subtraction approach (Figure SI1). Briefly, each video frame was subtracted from the average image of the whole image sequence and converted to a binary image by applying a Gaussian blur (σ = 5) and a threshold of 0.025 to obtain optimal contrast in binary images. Subsequently, the sum of all binary images was calculated. Due to movement of the blood cells the subtraction approach removed all parts from the image which were not moving resulting in an image of the blood vessels. This binary image of the blood vessel network in the zebrafish embryo tail was then processed with the FishInspector annotation software (version 1.70). […] The number of ISVs was obtained by application of a KNIME workflow to FishInspector annotation files. Subsequently concentration–response analysis was conducted using a KNIME workflow. The coefficient of variation (CV) of controls was calculated for both the subtraction and the fluorescence-based method by dividing the standard deviation of individual embryos with the control mean: CVControl=SD/Mean.
Concentration–response curves were fitted for lethality, heart rate, morphological features as previously described (Teixidó et al. [2019], [2022]). The assessment of lethality and morphological features was based on the percentage of embryos affected. Therefore, morphological endpoints were dichotomized, i.e. feature metrics were converted to the percentage of embryos deviating from controls. An embryo was considered to deviate when it was outside 1.5-fold of the standard deviation range of the mean of the control group. The control mean was determined by pooling control embryos across all experiments (n = 160) (available at git.ufz.de). For heart rate and angiogenesis (number of ISVs) the analysis was based on normalized values, i.e. for each experiment the values of the treatment were divided by the control value. The experiments were designed to calculate effect concentrations based on modelled curve fits. […]

[2] = system: zebrafish embryos, transgenic line Tg(kdr:EGFP); experiment: Number of ISVs by fluorescence imaging in Tg(kdr:EGFP) zebrafish embryos; format: in vivo, zebrafish (D. rerio); conditions: exposure 24–96 hpf, 0.31–10 µM
Procedure: as §1
as §2, with “mode. […]” for “mode.”

[3] = system: early life stage zebrafish; conditions: cited from earlier work
[4] = system: zebrafish embryos (wild-type strain OBI/WIK); experiment: Lethality of zebrafish embryos at 96 hpf; format: in vivo, zebrafish (D. rerio); conditions: for Mortality (in words): embryos exposed from 24 hpf, compared to exposure from 3 hpf
Procedure: as §1
(§3) Concentration–response curves were fitted for lethality, heart rate, morphological features as previously described (Teixidó et al. [2019], [2022]). The assessment of lethality and morphological features was based on the percentage of embryos affected. Therefore, morphological endpoints were dichotomized, i.e. feature metrics were converted to the percentage of embryos deviating from controls. An embryo was considered to deviate when it was outside 1.5-fold of the standard deviation range of the mean of the control group. The control mean was determined by pooling control embryos across all experiments (n = 160) (available at git.ufz.de). For heart rate and angiogenesis (number of ISVs) the analysis was based on normalized values, i.e. for each experiment the values of the treatment were divided by the control value. The experiments were designed to calculate effect concentrations based on modelled curve fits. Different concentrations were used in at least two independent replicates, with means of each replicate based on the exposure of 16 different embryos per concentrations. Effect concentration were only modeled when three conditions were met. (1) The Tukey trend test based on the R package "tukeytrend" (Schaarschmidt et al. [2022]) was deriving a maximum p-value of 0.05. (2) The Akaike information criterion (AIC) for the log-logistic model was lower than the AIC for a linear model with slope 0 (lower p values for the letter would indicate that there is no trend in the data). (3) We calculated effect concentrations only if at least 30% of embryos for that endpoint were affected in at least one exposure concentration of (for normalized data) a reduction or increase by 30% was observed.

[5] = Lethality of zebrafish embryos at 96 hpf; format: in vivo, zebrafish (D. rerio); conditions: OBI/WIK wild-type, zebrafish, in vivo, other: immersion of embryos in exposure media, ± 95% confidence intervals
Procedure: as §1, §3

CN(C)c1ccc(C=C2C(=O)Nc3ccccc32)cc1 [SU4312]
EC10 (IC10) number of ISVs, subtraction image ([1]; Tg(kdr:EGFP), exposure 24–96 hpf, 0.31–10 µM): 0.72 µM
EC50 ([1]; Tg(kdr:EGFP), exposure 24–96 hpf, 0.31–10 µM, read-out: EC50 (IC50) number of ISVs, subtraction image): 2.98 µM
EC50 ([1]; arterial ISVs only, subtraction method, ± 95% confidence where given, read-out: aISVs EC50): 2.58 ± 3.12 µM
EC50 ([1]; subtraction method, ± 95% confidence where given, read-out: all ISVs EC50 (combined assessment)): 2.98 µM
EC50 ([1]; venous ISVs only, subtraction method, ± 95% confidence where given, read-out: vISVs EC50): 0.75 ± 0.17 µM
EC10 (IC10) number of ISVs, fluorescent image [2]: 1.17 µM
EC50 ([2]; read-out: EC50 number of ISVs, fluorescent image): > 10 µM
IC50 ([3]; ref Tal et al. [2014], read-out: IC50 (ISV inhibition)): 1.8 µM
LC50 ([4]; 3–96 hpf exposure, ± 95% confidence intervals): 2.11 ± 0.22 µM
Mortality (in words) [4]: no

Cc1cc(C)c(/C=C2\C(=O)Nc3ccccc32)[nH]1 [SU5416]
Reduction (ISV) ([3]; late exposure scenario, 40 µM, ref Parng et al. [2002]): 40%
Concentration with complete ISV inhibition ([3]; late exposure scenario, ref Panneerselvan and Ragunathan [2018]): 2 µM
Concentration with inhibition of ISV formation ([3]; ref Serbedzija et al. [1999]): 1 µM
LC50 ([5]; 3–96 hpf exposure): 0.89 ± 0.42 µM
LC50 ([5]; 24–96 hpf exposure): 1.93 ± 0.83 µM
Mortality (in words) [4]: reduced

CNC(=O)c1cc(Oc2ccc(NC(=O)Nc3ccc(Cl)c(C(F)(F)F)c3)cc2)ccn1 [Sorafenib]
IC50 ([3]; ref Lin et al. [2019], read-out: IC50 from scoring system of different ISV length): 0.53 µM
LC50 ([5]; 3–96 hpf exposure): 2.8 ± 0.31 µM
Mortality (in words) [4]: no
